Measured values taken from PubChem BioAssay (NCI).
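In this assay, cells in 96-well plates receive the compound at five concentrations for 48 hours. Endpoints are linearly interpolated between the surrounding concentrations. Definition used: TGI = concentration required for complete inhibition of growth.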

What was measured:
Assay in all cases: inhibition of tumour cell growth, NCI panel, 48 h
786-0 renal = tested on: 786-0 renal
A498 renal = tested on: A498 renal
A549 NSCLC = tested on: A549 NSCLC
ACHN renal = tested on: ACHN renal
BT-549 breast = tested on: BT-549 breast
CAKI-1 renal = tested on: CAKI-1 renal
CCRF-CEM leukemia = tested on: CCRF-CEM leukemia
COLO 205 colon = tested on: COLO 205 colon
DU-145 prostate = tested on: DU-145 prostate
EKVX NSCLC = tested on: EKVX NSCLC
HCC-2998 colon = tested on: HCC-2998 colon
HCT-116 colon = tested on: HCT-116 colon
HCT-15 colon = tested on: HCT-15 colon
HL-60(TB) leukemia = tested on: HL-60(TB) leukemia
HOP-62 NSCLC = tested on: HOP-62 NSCLC
HOP-92 NSCLC = tested on: HOP-92 NSCLC
HS 578T breast = tested on: HS 578T breast
HT29 colon = tested on: HT29 colon
IGROV1 ovarian = tested on: IGROV1 ovarian
K-562 leukemia = tested on: K-562 leukemia
KM12 colon = tested on: KM12 colon
LOX IMVI melanoma = tested on: LOX IMVI melanoma
M14 melanoma = tested on: M14 melanoma
MALME-3M melanoma = tested on: MALME-3M melanoma
MCF7 breast = tested on: MCF7 breast
MDA-MB-231 breast = tested on: MDA-MB-231 breast
MDA-MB-435 = tested on: MDA-MB-435
MDA-N = tested on: MDA-N
MOLT-4 leukemia = tested on: MOLT-4 leukemia
NCI-H226 lung = tested on: NCI-H226 lung
NCI-H23 lung = tested on: NCI-H23 lung
NCI-H460 lung = tested on: NCI-H460 lung
NCI-H522 lung = tested on: NCI-H522 lung
NCI/ADR-RES ovarian = tested on: NCI/ADR-RES ovarian
OVCAR-3 ovarian = tested on: OVCAR-3 ovarian
OVCAR-4 ovarian = tested on: OVCAR-4 ovarian
OVCAR-5 ovarian = tested on: OVCAR-5 ovarian
OVCAR-8 ovarian = tested on: OVCAR-8 ovarian
PC-3 prostate = tested on: PC-3 prostate
RPMI-8226 leukemia = tested on: RPMI-8226 leukemia
RXF 393 renal = tested on: RXF 393 renal
SF-268 CNS = tested on: SF-268 CNS
SF-295 CNS = tested on: SF-295 CNS
SK-MEL-2 melanoma = tested on: SK-MEL-2 melanoma
SK-MEL-28 melanoma = tested on: SK-MEL-28 melanoma
SK-MEL-5 melanoma = tested on: SK-MEL-5 melanoma
SK-OV-3 ovarian = tested on: SK-OV-3 ovarian
SN12C renal = tested on: SN12C renal
SNB-19 CNS = tested on: SNB-19 CNS
SNB-75 CNS = tested on: SNB-75 CNS
SW-620 colon = tested on: SW-620 colon
T-47D breast = tested on: T-47D breast
TK-10 renal = tested on: TK-10 renal
U251 CNS = tested on: U251 CNS
UACC-257 melanoma = tested on: UACC-257 melanoma
UACC-62 melanoma = tested on: UACC-62 melanoma
UO-31 renal = tested on: UO-31 renal
SF-539 CNS = tested on: SF-539 CNS

In the case of `NC(Cc1ccccc1)=NCC(=O)O`, the TGI (786-0 renal) is reported as greater than 100 µM, the TGI (A498 renal) is reported as greater than 100 µM and the TGI (A549 NSCLC) is reported as greater than 100 µM. The TGI (ACHN renal) was greater than 100 µM, the TGI (BT-549 breast) was greater than 100 µM and the TGI (CAKI-1 renal) was greater than 100 µM. The TGI (CCRF-CEM leukemia) was greater than 100 µM, the TGI (COLO 205 colon) was greater than 100 µM and the TGI (DU-145 prostate) was greater than 100 µM. The TGI (EKVX NSCLC) was greater than 100 µM, the TGI (HCC-2998 colon) was greater than 100 µM and the TGI (HCT-116 colon) was greater than 100 µM. It also gave a TGI (HCT-15 colon) greater than 100 µM, a TGI (HL-60(TB) leukemia) greater than 100 µM and a TGI (HOP-62 NSCLC) greater than 100 µM. For the same molecule, the TGI (HOP-92 NSCLC) was greater than 100 µM, the TGI (HS 578T breast) was greater than 100 µM and the TGI (HT29 colon) was greater than 100 µM. The TGI (IGROV1 ovarian) was greater than 100 µM, the TGI (K-562 leukemia) was greater than 100 µM and the TGI (KM12 colon) was greater than 100 µM. The TGI (LOX IMVI melanoma) was greater than 100 µM, the TGI (M14 melanoma) was greater than 100 µM and the TGI (MALME-3M melanoma) was greater than 100 µM. It also gave a TGI (MCF7 breast) greater than 100 µM, a TGI (MDA-MB-231 breast) greater than 100 µM and a TGI (MDA-MB-435) greater than 100 µM. It also gave a TGI (MDA-N) greater than 100 µM, a TGI (MOLT-4 leukemia) greater than 100 µM and a TGI (NCI-H226 lung) greater than 100 µM. For the same molecule, the TGI (NCI-H23 lung) was greater than 100 µM, the TGI (NCI-H460 lung) was greater than 100 µM and the TGI (NCI-H522 lung) was greater than 100 µM. For the same molecule, the TGI (NCI/ADR-RES ovarian) was greater than 100 µM, the TGI (OVCAR-3 ovarian) was greater than 100 µM and the TGI (OVCAR-4 ovarian) was greater than 100 µM. The TGI (OVCAR-5 ovarian) was greater than 100 µM, the TGI (OVCAR-8 ovarian) was greater than 100 µM and the TGI (PC-3 prostate) was greater than 100 µM. It also gave a TGI (RPMI-8226 leukemia) greater than 100 µM, a TGI (RXF 393 renal) greater than 100 µM and a TGI (SF-268 CNS) greater than 100 µM. For the same molecule, the TGI (SF-295 CNS) was greater than 100 µM, the TGI (SK-MEL-2 melanoma) was greater than 100 µM and the TGI (SK-MEL-28 melanoma) was greater than 100 µM. For the same molecule, the TGI (SK-MEL-5 melanoma) was greater than 100 µM, the TGI (SK-OV-3 ovarian) was greater than 100 µM and the TGI (SN12C renal) was greater than 100 µM. The TGI (SNB-19 CNS) was greater than 100 µM, the TGI (SNB-75 CNS) was greater than 100 µM and the TGI (SW-620 colon) was greater than 100 µM. The TGI (T-47D breast) was greater than 100 µM, the TGI (TK-10 renal) was greater than 100 µM and the TGI (U251 CNS) was greater than 100 µM. For the same molecule, the TGI (UACC-257 melanoma) was greater than 100 µM, the TGI (UACC-62 melanoma) was greater than 100 µM and the TGI (UO-31 renal) was greater than 100 µM.
Molecule `c1ccc2c(c1)CCN(C1=NCCO1)C2` has a TGI (786-0 renal) greater than 10 µM, a TGI (A498 renal) greater than 10 µM and a TGI (A549 NSCLC) greater than 10 µM. For the same molecule, the TGI (ACHN renal) was greater than 10 µM, the TGI (BT-549 breast) was greater than 10 µM and the TGI (CAKI-1 renal) was greater than 10 µM. For the same molecule, the TGI (CCRF-CEM leukemia) was greater than 10 µM, the TGI (COLO 205 colon) was greater than 10 µM and the TGI (DU-145 prostate) was greater than 10 µM. The TGI (EKVX NSCLC) was greater than 10 µM, the TGI (HCC-2998 colon) was greater than 10 µM and the TGI (HCT-116 colon) was greater than 10 µM. It also gave a TGI (HCT-15 colon) greater than 10 µM, a TGI (HL-60(TB) leukemia) greater than 10 µM and a TGI (HOP-62 NSCLC) greater than 10 µM. It also gave a TGI (HOP-92 NSCLC) greater than 10 µM, a TGI (HS 578T breast) greater than 10 µM and a TGI (HT29 colon) greater than 10 µM. It also gave a TGI (IGROV1 ovarian) greater than 10 µM, a TGI (K-562 leukemia) greater than 10 µM and a TGI (KM12 colon) greater than 10 µM. The TGI (LOX IMVI melanoma) was greater than 10 µM, the TGI (M14 melanoma) was greater than 10 µM and the TGI (MALME-3M melanoma) was greater than 10 µM. The TGI (MCF7 breast) was greater than 10 µM, the TGI (MDA-MB-231 breast) was greater than 10 µM and the TGI (MDA-MB-435) was greater than 10 µM. It also gave a TGI (MDA-N) greater than 10 µM, a TGI (MOLT-4 leukemia) greater than 10 µM and a TGI (NCI-H226 lung) greater than 10 µM. For the same molecule, the TGI (NCI-H23 lung) was greater than 10 µM, the TGI (NCI-H460 lung) was greater than 10 µM and the TGI (NCI-H522 lung) was greater than 10 µM. The TGI (NCI/ADR-RES ovarian) was greater than 10 µM, the TGI (OVCAR-3 ovarian) was greater than 10 µM and the TGI (OVCAR-4 ovarian) was greater than 10 µM. It also gave a TGI (OVCAR-5 ovarian) greater than 10 µM, a TGI (OVCAR-8 ovarian) greater than 10 µM and a TGI (PC-3 prostate) greater than 10 µM. For the same molecule, the TGI (RPMI-8226 leukemia) was greater than 10 µM, the TGI (RXF 393 renal) was greater than 10 µM and the TGI (SF-268 CNS) was greater than 10 µM. For the same molecule, the TGI (SF-295 CNS) was greater than 10 µM, the TGI (SF-539 CNS) was greater than 10 µM and the TGI (SK-MEL-2 melanoma) was greater than 10 µM. The TGI (SK-MEL-28 melanoma) was greater than 10 µM, the TGI (SK-MEL-5 melanoma) was greater than 10 µM and the TGI (SK-OV-3 ovarian) was greater than 10 µM. The TGI (SN12C renal) was greater than 10 µM, the TGI (SNB-19 CNS) was greater than 10 µM and the TGI (SNB-75 CNS) was greater than 10 µM. The TGI (SW-620 colon) was greater than 10 µM, the TGI (T-47D breast) was greater than 10 µM and the TGI (TK-10 renal) was greater than 10 µM. It also gave a TGI (U251 CNS) greater than 10 µM, a TGI (UACC-257 melanoma) greater than 10 µM and a TGI (UACC-62 melanoma) greater than 10 µM. For the same molecule, the TGI (UO-31 renal) was greater than 10 µM.
